This passage reports melting point results from a melting point compilation (Tetko et al.; mined from patent text by program, amines drawn as free bases though some values may be those of a salt).

In general, melting point refers to the temperature, or range, at which the solid turns liquid. In the case of `COc1cccc(OC)c1-c1ccc(C[C@H](NC(=O)c2c(Cl)ccc(-c3c(C)noc3C)c2Cl)C(=O)O)cc1`, the melting point worked out at 145 °C. As for `CC(=O)c1cc([N+](=O)[O-])c(Cl)c([N+](=O)[O-])c1`, the figure is 86 to 86.5 °C; as for `C=CCC(NC(=O)c1ccc(OC)cc1)C(=O)O` (stereo not given), 121 to 124 °C. As for `CCOc1cc2c(cc1OCC)C(C(S)(C#N)c1ccc(Cl)cc1)=NCC2` (stereo not given), the figure is 157 to 160 °C; as for `CCCC=Nc1cc(CO)cc(Nc2c3ccccc3nc3ccccc23)c1`, 228 to 230 °C.

As for `COc1ccc(CCNc2cc(-n3cccn3)nc(-c3cccs3)n2)cc1OC`, the melting point is 116 to 117 °C.

For the compound `COc1ccc(C2Nc3ccc(Cl)cc3C(C#CC3CC3)(C(F)(F)F)O2)cc1OC` (stereo not given), the melting point lay within 172 to 175 °C. In the case of `N#Cc1cnn2c(-c3cccc(F)c3)ccnc12` it was 222 to 224 °C; in that of `O=C(NCc1ccccc1-c1ccccc1C(=O)NCCc1ccccn1)Nc1ccccc1`, 99 °C. In the case of `CS(=O)(=O)OCCCOC(=O)c1[nH]c(-c2ccccc2)c2cc(Cl)ccc12` it was 155 to 158 °C; in that of `CC(C)(C)OC(=O)N1CCC(CNc2c([N+](=O)[O-])cnc3cc(-c4ccccc4)ccc23)CC1`, 153 to 154 °C; in that of `COc1ccc(C(=O)Nc2ccccc2CC(C)C2CCCCN2C)cc1` (stereo not given), 126 to 136 °C.

In turn, `NC(=O)C1CCc2c([nH]c3ccc(Cl)cc23)C1` (stereo not given) yielded a melting point of 203 to 204 °C. The compound `CCc1c(C(=O)C(N)=O)c2c(OCC(=O)O)cccc2n1Cc1ccccc1` displayed a melting point of 230 to 234 °C. Consider `C=Cc1cc(C)cc(C)c1CC(=O)N(C)C1(C(=O)OC)CCN(OC)CC1`, for which the melting point was 160 to 162 °C. As for `Cc1c(C2=NC(C)(C)CO2)cccc1[N+](=O)[O-]`, the figure is 60 to 61 °C; as for `O=C(O)c1ccc(-c2nc(-c3ccc(OC(F)F)cc3)co2)cc1`, 261 to 262 °C; as for `NC(=O)c1nc(-c2cccnc2)nc2c1[nH]c(=O)n2[C@H]1CC[C@H](O)CC1`, 331 to 333 °C. As for `N=C(NN=Cc1ccc(OC(F)(F)C(F)F)cc1)NN=Cc1ccc(C(F)(F)F)cc1`, the figure is 132 to 137 °C; as for `Cn1c(Br)c(C#N)c(Br)c1C#N`, 175 to 178 °C. In the case of `O=C(Nc1ccc(C(=O)N2CCCc3cc(F)ccc32)cc1)c1cc(Cl)cc(Cl)c1` it was 206 °C; in that of `O=C(O)c1cccc(N2CCN(CCc3ccccc3)CC2)c1F`, 85.5 to 87.5 °C; in that of `COC(=O)CC1(O)C=CC(=O)C=C1`, 53 to 54 °C. In turn, `COc1c(F)c(F)cc2c(=O)c(C(=O)O)cn(C3CC3)c12` displayed a melting point of 185 to 186 °C. As for `CC(C)(C)[Si](C)(C)Oc1ccccc1-c1cc(-c2ccc([N+](=O)[O-])cc2)c(C#N)c(NC(=O)c2cccs2)n1`, the figure is 168 to 169 °C; as for `CCCCCS(=O)(=O)NC(=O)/C=C/c1ccc(OCCOC)cc1OCC1CCCCC1`, 97.5 to 98.3 °C. In the case of `CC(C)(C)c1cc(/C=C(\C#N)C(=O)NCCCc2ccccc2)cc(C(C)(C)C)c1O` it was 209 °C; in that of `CC1CC(=O)NN=C1c1ccc(OCCCN)cc1` (stereo not given), 136 to 138 °C; in that of `CC(=NO)c1ccc(N2CC(CO)OC2=O)cc1` (stereo not given), 190 °C. Take `CCOC(=O)NCc1cc(-c2ccccc2)no1`: the melting point stood at 82 °C.

Turning to `O=c1cc(-c2ccc(CO)cc2)oc2ccc(O)cc12`, the melting point is 262 to 265 °C. In the case of `Cc1ccc(S(=O)(=O)C2=CC3C=CC2N3C(=O)OC(C)(C)C)cc1` (stereo not given) it was 94 to 99 °C. Consider `COc1cc2onc(C3CCN(c4c(C)[nH]c5ccccc45)CC3)c2cc1OC`, for which the melting point was 176 to 178 °C. In the case of `COc1cc(Nc2c(C#N)cnc3c2sc2ccc([N+](=O)[O-])cc23)c(C)cc1Cl` it was > 305 °C; in that of `c1ccc(CN2CCN(Cc3c[nH]c4ncccc34)CC2)cc1`, 153 °C.
